Reference: publication doi:10.1101/2024.08.25.609621 (bioRxiv, 2024)
Read-outs that look alike come from different tables or passages of the source.

Biological target: SARS-CoV-2 NSP3 macrodomain (Mac1), P43 crystal form (Severe acute respiratory syndrome coronavirus 2, UniProt P0DTD1)
Format: binding
Conditions: for 1-BDC: PanDDA background density correction; for Pandda run, overall: Hit / Pandda run, overall: Modeled / PanDDA run, DMSO background map: 1-BDC / PanDDA run, DMSO background map: Hit / Pandda run, overall: Modeling comment / PanDDA run, TFA/DMSO background map: 1-BDC / PanDDA run, TFA/DMSO background map: Hit: crystal soak 10 mM; for Pandda run, overall: Hit / Pandda run, overall: Modeled / Pandda run, overall: Modeling comment: P43 crystals; for Total number of conformations: ligand conformations modeled in Mac1 crystal structure; for X-ray crystallography: Binding site: site where the ligand is bound in the X-ray crystal structure
[1] = occupancy estimate from PanDDA 1-BDC
[2] = X-ray crystal structure determined (TRUE)
[3] = site of ligand in X-ray crystal structure

SMILES	1-BDC	Pandda run, overall: Hit	Pandda run, overall: Modeled	PanDDA run, DMSO background map: 1-BDC	PanDDA run, DMSO background map: Hit	X-ray crystal structure (crystal structure with Mac1 determined (TRUE))	Total number of conformations	2*(1-BDC) (%) [1] [%]	Binding site (site of ligand in Mac1 crystal structure)	X-ray crystal structure [2]	Binding site [3]	X-ray crystallography: Binding site	Pandda run, overall: Modeling comment	PanDDA run, TFA/DMSO background map: 1-BDC	PanDDA run, TFA/DMSO background map: Hit	Occupancy difference (refined_occupancy - 2*(1-BDC))	Refined ligand occupancy (%)	2*(1-BDC) (%) (occupancy estimate from PanDDA BDC)	Refined TFA occupancy (%) (occupancy of TFA in the dataset of the named ligand)
OC1CCCN(c2ncnc3[nH]ccc23)C1 (stereo not drawn) [AVI-3646]	0.22	TRUE	TRUE	0.22	TRUE	TRUE	1	44	Adenosine	–	–	–	–	–	–	–	–	–	–
CC(C)(C)CC(CO)Nc1ncnc2[nH]ccc12 (stereo not drawn) [AVI-3648]	0.13	TRUE	TRUE	0.13	TRUE	–	1	26	–	TRUE	Adenosine	–	–	–	–	–	–	–	–
OCC(Nc1ncnc2[nH]ccc12)C1CCCC1 (stereo not drawn) [AVI-3649]	0.16	TRUE	TRUE	0.16	TRUE	–	1	32	–	TRUE	Adenosine	–	–	–	–	–	–	–	–
OCC(Cc1c[nH]c2ccccc12)Nc1ncnc2[nH]ccc12 (stereo not drawn) [AVI-3650]	0.15	TRUE	TRUE	0.15	TRUE	–	2	30	–	TRUE	Adenosine	–	–	–	–	–	–	–	–
OC(c1ccccc1)C1CCCN1c1ncnc2[nH]ccc12 (stereo not drawn) [AVI-3652]	0.22	TRUE	TRUE	0.22	TRUE	–	1	44	–	–	–	Adenosine	–	–	–	–	–	–	–
O=C(O)C(F)(F)F.OC[C@@H](CCc1ccccc1)Nc1ncnc2[nH]ccc12 [AVI-3654]	–	TRUE	–	0.14	TRUE	–	–	–	–	–	–	–	Weak density for phenyl, not modeled	0.07	TRUE	–	–	–	–
CC1CCN(c2ncnc3[nH]ccc23)C1CO (stereo not drawn) [AVI-3655]	0.21	TRUE	TRUE	0.21	TRUE	–	1	42	–	–	–	Adenosine	–	–	–	–	–	–	–
CO[C@@H]1C[C@H](CO)N(c2ncnc3[nH]ccc23)C1 [AVI-3656]	0.26	TRUE	TRUE	0.26	TRUE	–	1	52	–	–	–	Adenosine	–	–	–	–	–	–	–
Cn1cc(CC(CO)Nc2ncnc3[nH]ccc23)cn1 (stereo not drawn) [AVI-3657]	0.15	TRUE	TRUE	0.15	TRUE	–	1	30	–	TRUE	Adenosine	–	–	–	–	–	–	–	–
OCC(CC1OCCO1)Nc1ncnc2[nH]ccc12 (stereo not drawn) [AVI-3658]	0.2	TRUE	TRUE	0.2	TRUE	–	1	40	–	TRUE	Adenosine	–	–	–	–	–	–	–	–
OCC(Nc1ncnc2[nH]ccc12)c1ccco1 (stereo not drawn) [AVI-3659]	0.16	TRUE	TRUE	0.16	TRUE	–	1	32	–	TRUE	Adenosine	–	–	–	–	–	–	–	–
OCC(CC1CCCO1)Nc1ncnc2[nH]ccc12 (stereo not drawn) [AVI-3660]	0.23	TRUE	TRUE	0.23	TRUE	–	1	46	–	TRUE	Adenosine	–	–	–	–	–	–	–	–
OC1CCN(c2ncnc3[nH]ccc23)C1 (stereo not drawn) [AVI-3661]	0.15	TRUE	TRUE	0.15	TRUE	–	1	–	–	–	–	Adenosine	–	–	–	10	40	30	20
OCC(CC1CC1)Nc1ncnc2[nH]ccc12 (stereo not drawn) [AVI-3662]	0.14	TRUE	TRUE	0.14	TRUE	–	1	28	–	TRUE	Adenosine	–	Distal site, weak density, not modeled	–	–	–	–	–	–
OCC(CC1CCOC1)Nc1ncnc2[nH]ccc12 (stereo not drawn) [AVI-3665]	0.17	TRUE	TRUE	0.17	TRUE	–	1	34	–	TRUE	Adenosine	–	–	–	–	–	–	–	–
CCC(Nc1ncnc2[nH]ccc12)C(C)(C)O (stereo not drawn) [AVI-3667]	0.14	TRUE	TRUE	0.14	TRUE	–	1	28	–	TRUE	Adenosine	–	–	–	–	–	–	–	–
CC(C)CCC(CO)Nc1ncnc2[nH]ccc12.O=C(O)C(F)(F)F (stereo not drawn) [AVI-3668]	–	TRUE	–	0.15	TRUE	–	–	–	–	–	–	–	Weak density, not modeled	0.09	TRUE	–	–	–	–
OCC(Cc1nccs1)Nc1ncnc2[nH]ccc12 (stereo not drawn) [AVI-3673]	0.19	TRUE	TRUE	0.19	TRUE	–	1	38	–	TRUE	Adenosine	–	–	–	–	–	–	–	–
Cc1ccccc1CC(CO)Nc1ncnc2[nH]ccc12 (stereo not drawn) [AVI-3674]	0.19	TRUE	TRUE	0.19	TRUE	–	1	38	–	TRUE	Adenosine	–	–	–	–	–	–	–	–
O=C(O)C(F)(F)F.OCC(CC1CCOCC1)Nc1ncnc2[nH]ccc12 (stereo not drawn) [AVI-3676]	–	–	–	–	–	–	–	–	–	–	–	–	TFA only	–	–	–	–	–	–
OCC(Nc1ncnc2[nH]ccc12)C1CCOC1 (stereo not drawn) [AVI-3679]	0.16	TRUE	TRUE	0.16	TRUE	–	1	32	–	TRUE	Adenosine	–	–	–	–	–	–	–	–
O=C(O)C(F)(F)F.OCC12CC(CN1c1ncnc3[nH]ccc13)C2 [AVI-3681]	0.22	TRUE	TRUE	0.22	TRUE	–	1	44	–	–	–	Adenosine	Distal site, weak density, not modeled	–	–	–	–	–	–
Cc1ccc(CC(CO)Nc2ncnc3[nH]ccc23)cc1 (stereo not drawn) [AVI-3683]	0.15	TRUE	TRUE	0.15	TRUE	–	2	30	–	TRUE	Adenosine	–	–	–	–	–	–	–	–
Cc1ccc(CC(CO)Nc2ncnc3[nH]ccc23)cc1C (stereo not drawn) [AVI-3684]	0.15	TRUE	TRUE	0.15	TRUE	–	2	30	–	TRUE	Adenosine	–	–	–	–	–	–	–	–
OCC1CCCN1c1ncnc2[nH]ccc12 (stereo not drawn) [AVI-3685]	0.25	TRUE	TRUE	0.25	TRUE	–	1	50	–	–	–	Adenosine	–	–	–	–	–	–	–
OCC(Cc1ccc(I)cc1)Nc1ncnc2[nH]ccc12 (stereo not drawn) [AVI-3686]	0.2	TRUE	TRUE	0.2	TRUE	–	2	40	–	TRUE	Adenosine	–	–	–	–	–	–	–	–
